In brackets after ≈: the same amount, converted by molar mass.
How the values were obtained:
Experiment in all cases: ≥ marks a high value that may be exact or a test limit, other limits are often not marked, values filed in µg/mL are converted to µM
[1] = test system: Pseudomonas aeruginosa H1027
[2] = test system: Enterococcus faecalis W61950
[3] = test system: Staphylococcus aureus ATCC 25923
[4] = test system: Pseudomonas aeruginosa H1030
[5] = test system: Pseudomonas aeruginosa 213
[6] = test system: Klebsiella pneumoniae ESBL 63575
[7] = test system: Pseudomonas aeruginosa PAO1 H103
[8] = test system: Staphylococcus aureus C623
[9] = test system: Pseudomonas aeruginosa 198
Pseudomonas aeruginosa 9 = test system: Pseudomonas aeruginosa 9
[10] = test system: Escherichia coli ESBL 64771
[11] = test system: Enterococcus faecalis f43559
[12] = test system: Enterobacter cloacae 218R
[13] = test system: Stenotrophomonas maltophilia ATCC 13637
[14] = test system: Enterococcus faecium mic80
[15] = test system: Escherichia coli ESBL 63103
[16] = test system: Klebsiella pneumoniae ESBL 61962
[17] = test system: Enterococcus faecium t62764
[18] = test system: Pseudomonas aeruginosa LES400
[19] = test system: Enterococcus faecalis ATCC 29212
[20] = test system: Batrachochytrium dendrobatidis JEL-197
[21] = test system: Klebsiella pneumoniae ATCC 10031
[22] = test system: Escherichia coli ATCC 11219
[23] = test system: Salmonella enterica subsp. enterica serovar Typhimurium ATCC 14028
[24] = test system: Pseudomonas aeruginosa ATCC 13388
[25] = test system: Staphylococcus aureus ATCC 6538
[26] = test system: Staphylococcus aureus P1381
[27] = test system: Staphylococcus aureus P1374
Escherichia coli AB94012 = test system: Escherichia coli AB94012
[28] = test system: Pseudomonas aeruginosa AB93066
[29] = test system: Escherichia coli ATCC 25922
[30] = test system: Staphylococcus aureus AB94004
[31] = test system: Pseudomonas aeruginosa ATCC 9027
[32] = test system: Klebsiella pneumoniae ESBL 344/17
[33] = test system: Staphylococcus aureus ATCC 33591
[34] = test system: Staphylococcus aureus 1399/17
[35] = test system: Escherichia coli ESBL 521/17
[36] = test system: Acinetobacter baumannii 7226/16
[37] = test system: Pseudomonas aeruginosa 522/17
Escherichia coli ML-35p = test system: Escherichia coli ML-35p
[38] = test system: Staphylococcus aureus SG511

Q: What does the source list for CC[C@H](C)[C@H](NC(=O)[C@H](CC(N)=O)NC(=O)[C@H](CCCCN)NC(=O)[C@H](Cc1ccccc1)NC(=O)[C@H](CCCN=C(N)N)NC(=O)[C@H](Cc1c[nH]c2ccccc12)NC(=O)[C@H](C)N)C(=O)N[C@@H](CCCN=C(N)N)C(=O)N[C@@H](CCCCN)C(=O)O [AWRFKNIRK]?
A: MIC [1]: ≥ 74.7 µM; MIC [2]: ≥ 149 µM; MIC [3]: 149 µM (≈ 182 µg/mL); MIC [4]: ≥ 149 µM; MIC [5]: ≥ 149 µM; MIC [6]: ≥ 149 µM; MIC [7]: ≥ 149 µM; MIC [8]: ≥ 149 µM; MIC [9]: ≥ 149 µM; MIC (Pseudomonas aeruginosa 9): ≥ 149 µM; MIC [10]: ≥ 149 µM; MIC [11]: ≥ 149 µM; MIC [12]: ≥ 149 µM; MIC [13]: ≥ 149 µM; MIC [14]: ≥ 149 µM; MIC [15]: ≥ 149 µM; MIC [16]: ≥ 149 µM; MIC [17]: ≥ 149 µM; MIC [18]: ≥ 149 µM; MIC [19]: > 149 µM

Q: How did the MIC [20] turn out when CC[C@H](C)[C@H](NC(=O)[C@H](CC(C)C)NC(=O)[C@H](CCCCN)NC(=O)[C@@H]1CCCN1C(=O)[C@@H](NC(=O)[C@H](CC(C)C)NC(=O)[C@H](CC(N)=O)NC(=O)[C@H](C)NC(=O)[C@H](C)NC(=O)[C@H](CC(C)C)NC(=O)CNC(=O)[C@H](C)NC(=O)[C@H](CC(C)C)NC(=O)[C@@H](NC(=O)[C@@H]1CCCN1C(=O)[C@H](CC(C)C)NC(=O)[C@@H](N)Cc1ccccc1)[C@@H](C)CC)C(C)C)C(=O)N[C@H]1CSSC[C@@H](C(=O)O)NC(=O)[C@H](CCCCN)NC(=O)[C@H](CCCCN)NC(=O)[C@H]([C@@H](C)O)NC(=O)[C@H]([C@@H](C)CC)NC(=O)[C@H](CO)NC1=O [FLPILAGLAANLVPKLICSITKKC] was run?
A: 12.5 µM (≈ 31.6 µg/mL)

Q: For CC[C@H](C)[C@H](NC(=O)CN)C(=O)N[C@@H](Cc1cnc[nH]1)C(=O)N[C@@H](CC(=O)O)C(=O)N[C@H](C(=O)N[C@@H](CC(C)C)C(=O)N[C@@H](CCCCN)C(=O)N[C@@H](Cc1ccc(O)cc1)C(=O)NCC(=O)N[C@@H](CCCCN)C(=O)N1CCC[C@H]1C(=O)N[C@@H](CO)C(N)=O)[C@@H](C)CC [GIHDILKYGKPS], which MIC [21] is on record?
A: 10 µM (≈ 13.3 µg/mL)

Q: What about the MIC [22] of the same molecule?
A: 5 µM (≈ 6.63 µg/mL)

Q: What about the MIC [23] of the same molecule?
A: 20 µM (≈ 26.5 µg/mL)

Q: What about the MIC [24] of the same molecule?
A: 30 µM (≈ 39.8 µg/mL)

Q: And the MIC [25]?
A: 10 µM (≈ 13.3 µg/mL)

Q: What does the source list for CC[C@H](C)[C@H](NC(=O)CN)C(=O)N[C@@H](Cc1cnc[nH]1)C(=O)N[C@@H](CCCN=C(N)N)C(=O)N[C@H](C(=O)N[C@@H](CC(C)C)C(=O)N[C@@H](CCCCN)C(=O)N[C@@H](Cc1ccc(O)cc1)C(=O)NCC(=O)N[C@@H](CCCCN)C(=O)N1CCC[C@H]1C(=O)N[C@@H](CO)C(N)=O)[C@@H](C)CC [GIHRILKYGKPS]?
A: MIC [21]: 3 µM (≈ 4.1 µg/mL); MIC [22]: 2.2 µM (≈ 3.01 µg/mL); MIC [23]: 3 µM (≈ 4.1 µg/mL); MIC [24]: 10 µM (≈ 13.7 µg/mL); MIC [25]: 10 µM (≈ 13.7 µg/mL)

Q: What does the source list for CC[C@H](C)[C@H](NC(=O)[C@H](CO)NC(=O)[C@H](CCCCN)NC(=O)[C@@H](NC(=O)CNC(=O)[C@H](CCCCN)NC(=O)[C@H](Cc1c[nH]c2ccccc12)NC(=O)[C@H](CC(C)C)NC(=O)[C@H](CCCCN)NC(=O)CNC(=O)[C@H](CC(C)C)NC(=O)[C@@H](NC(=O)[C@@H](N)CCCCN)[C@@H](C)CC)C(C)C)C(=O)N[C@@H](Cc1ccccc1)C(N)=O [KILGKLWKGVKSIF]?
A: MIC [26]: 3.87 µM (≈ 6.25 µg/mL); MIC [3]: 7.73 µM (≈ 12.5 µg/mL); MIC [27]: 3.87 µM (≈ 6.25 µg/mL); MIC (Escherichia coli AB94012): 15.5 µM (≈ 25 µg/mL); MIC [28]: 30.9 µM (≈ 50 µg/mL); MIC [29]: 30.9 µM (≈ 50 µg/mL); MIC [25]: 7.73 µM (≈ 12.5 µg/mL); MIC [30]: 3.87 µM (≈ 6.25 µg/mL); MIC [31]: 30.9 µM (≈ 50 µg/mL)

Q: How did the MIC [1] turn out when CC[C@H](C)[C@H](NC(=O)[C@H](CCCCN)NC(=O)[C@H](Cc1c[nH]c2ccccc12)NC(=O)[C@@H](N)CCCCN)C(=O)N[C@@H](Cc1ccccc1)C(=O)N[C@@H](CCCN=C(N)N)C(=O)N[C@@H](CCCN=C(N)N)C(=O)N[C@@H](Cc1c[nH]c2ccccc12)C(=O)N[C@@H](Cc1c[nH]c2ccccc12)C(=O)O [KWKIFRRWW] was run?
A: 1.57 µM (≈ 2.2 µg/mL)

Q: What about the MIC [2] of the same molecule?
A: ≥ 49.1 µM

Q: What about the MIC [3] of the same molecule?
A: 1.57 µM (≈ 2.2 µg/mL)

Q: What about the MIC [4] of the same molecule?
A: 24.2 µM (≈ 34 µg/mL)

Q: And the MIC [5]?
A: 24.2 µM (≈ 34 µg/mL)

Q: What about the MIC [6] of the same molecule?
A: ≥ 49.1 µM

Q: What about the MIC [7] of the same molecule?
A: 6.05 µM (≈ 8.5 µg/mL)

Q: What about the MIC [8] of the same molecule?
A: 1.57 µM (≈ 2.2 µg/mL)

Q: What about the MIC [9] of the same molecule?
A: 12.1 µM (≈ 17 µg/mL)

Q: And the MIC (Pseudomonas aeruginosa 9)?
A: 12.1 µM (≈ 17 µg/mL)

Q: What about the MIC [10] of the same molecule?
A: 6.05 µM (≈ 8.5 µg/mL)

Q: What about the MIC [11] of the same molecule?
A: ≥ 49.1 µM

Q: And the MIC [12]?
A: 3.06 µM (≈ 4.3 µg/mL)

Q: And the MIC [13]?
A: 0.782 µM (≈ 1.1 µg/mL)

Q: And the MIC [14]?
A: 12.1 µM (≈ 17 µg/mL)

Q: And the MIC [15]?
A: 12.1 µM (≈ 17 µg/mL)

Q: What about the MIC [16] of the same molecule?
A: ≥ 98.2 µM

Q: And the MIC [17]?
A: 3.06 µM (≈ 4.3 µg/mL)

Q: And the MIC [18]?
A: 6.05 µM (≈ 8.5 µg/mL)

Q: And the MIC [19]?
A: 12.1 µM (≈ 17 µg/mL)

Q: With CC[C@H](C)[C@H](NC(=O)[C@H](CCCN=C(N)N)NC(=O)[C@@H](NC(=O)[C@@H]1CCCN1C(=O)[C@@H]1CCCN1C(=O)[C@H](CCCN=C(N)N)NC(=O)[C@H](CCCN=C(N)N)NC(=O)[C@H](Cc1ccccc1)NC(=O)[C@@H]1CCCN1C(=O)[C@H](CC(C)C)NC(=O)[C@H](CCCN=C(N)N)NC(=O)[C@H](Cc1ccccc1)NC(=O)[C@@H](N)CCCN=C(N)N)[C@@H](C)CC)C(=O)N[C@@H](Cc1cnc[nH]1)C(=O)N1CCC[C@H]1C(=O)N1CCC[C@H]1C(=O)N1CCC[C@H]1C(=O)N[C@@H](Cc1ccccc1)C(=O)N[C@@H](Cc1ccc(O)cc1)C(N)=O [RFRLPFRRPPIRIHPPPFY] as the molecule, how does the MIC [32] read?
A: 8 µM (≈ 19.7 µg/mL)

Q: What about the MIC [33] of the same molecule?
A: ≥ 64 µM

Q: What about the MIC [34] of the same molecule?
A: ≥ 32 µM

Q: What about the MIC [35] of the same molecule?
A: 4 µM (≈ 9.85 µg/mL)

Q: And the MIC [36]?
A: 16 µM (≈ 39.4 µg/mL)

Q: What about the MIC [37] of the same molecule?
A: ≥ 64 µM

Q: And the MIC (Escherichia coli ML-35p)?
A: 4 µM (≈ 9.85 µg/mL)

Q: What about the MIC [38] of the same molecule?
A: 4 µM (≈ 9.85 µg/mL)

Q: Which MIC [32] does the source give for CC[C@H](C)[C@H](NC(=O)[C@@H](N)CCCN=C(N)N)C(=O)N[C@@H](Cc1cnc[nH]1)C(=O)N1CCC[C@H]1C(=O)N1CCC[C@H]1C(=O)N1CCC[C@H]1C(=O)N[C@@H](Cc1ccccc1)C(=O)N[C@@H](Cc1ccc(O)cc1)C(=O)N1CCC[C@H]1C(=O)N1CCC[C@H]1C(=O)N[C@@H](Cc1ccccc1)C(=O)N[C@@H](CCCN=C(N)N)C(=O)N[C@@H](CCCN=C(N)N)C(=O)N[C@@H](Cc1ccccc1)C(=O)N[C@@H](CC(C)C)C(N)=O [RIHPPPFYPPFRRFL] here?
A: ≥ 64 µM

Q: And the MIC [33]?
A: ≥ 90.5 µM

Q: And the MIC [34]?
A: ≥ 32 µM

Q: And the MIC [35]?
A: ≥ 32 µM

Q: And the MIC [36]?
A: ≥ 32 µM

Q: What about the MIC [37] of the same molecule?
A: ≥ 128 µM

Q: And the MIC (Escherichia coli ML-35p)?
A: ≥ 64 µM

Q: And the MIC [38]?
A: 8 µM (≈ 15.5 µg/mL)

From DBAASP
